Assay results published in patent publication US20180291123A1, “DI-FUNCTIONALIZED HYALURONIC ACID DERIVATIVES AND HYDROGELS THEREOF” (THE BROAD OF REGENTS OF THE UNIVERSITY OF TEXAS SYSTEM, priority 2015, published 2018).
No end group written: not given here.

Experiments:
[1] = system: mouse embryonic stem cells; test: Differentiation of mouse embryonic stem cells on IKVAV concentration gradient PEG hydrogels; type: cell-based; settings: 3 days of differentiation
hiPSC derived NSC = hiPSC derived NSC in 3D matrix with coupled IKVAV; type: cell-based, human; settings: peptide coupled within a 3D matrix, preliminary data

## IKVAV (also: tethered in PEG hydrogel)
[1]; high concentration of tethered peptide
  toxicity: toxicity evident
[1]; low concentration of tethered peptide
  neurite extension: lack of neurite extension
[1]; tethered peptide concentration gradient in PEG hydrogels, β3 tubulin staining
  effect on cellular survival, neurite extension and differentiation: concentration dependent effect
hiPSC derived NSC
  survival and neurite extension: can support survival and neurite extension
